The source of these data is BindingDB's records for doi:10.1021/ml200030q (2011).

The IC50 is the point on the concentration scale where inhibition reaches its midpoint.

The first assay in a line: Antagonist activity at CCR2 in human PBMC assessed as inhibition of MCP1-induced chemotaxis after 30 mins.
On to `O=C(CNC(=O)c1cccc(C(F)(F)F)c1)N[C@@H]1CCN([C@H]2CC[C@@](O)(c3cncnc3)CC2)C1`, for which the IC50 amounted to 20 nM.

Regarding `O=C(CNC(=O)c1cccc(C(F)(F)F)c1)N[C@@H]1CCN([C@H]2CC[C@@](O)(c3cccnc3)CC2)C1`, the IC50 was determined as 3.9 nM.

Regarding `O=C(CNC(=O)c1cccc(C(F)(F)F)c1)N[C@@H]1CCN([C@H]2CC[C@@](O)(c3ncccn3)CC2)C1`, the IC50 amounted to 9.3 nM.

In the case of `O=C(CNC(=O)c1cccc(C(F)(F)F)c1)N[C@@H]1CCN([C@H]2CC[C@@](O)(c3cccnn3)CC2)C1`, the IC50 amounted to 5.8 nM.

Consider `Cc1ccc([C@]2(O)CC[C@H](N3CC[C@@H](NC(=O)CNC(=O)c4cccc(C(F)(F)F)c4)C3)CC2)cn1`, for which the IC50 was determined as 5.6 nM.

`CCOc1ccc([C@]2(O)CC[C@H](N3CC[C@@H](NC(=O)CNC(=O)c4cccc(C(F)(F)F)c4)C3)CC2)cn1`: the IC50 turned out to be 2.7 nM.

In the case of `O=C(CNC(=O)c1cccc(C(F)(F)F)c1)N[C@@H]1CCN([C@H]2CC[C@@](O)(c3ccnnc3)CC2)C1`, the IC50 was 7.2 nM.

For the compound `O=C(CNC(=O)c1cccc(C(F)(F)F)c1)N[C@@H]1CCN([C@H]2CC[C@@](O)(c3ccncc3)CC2)C1`, the IC50 was 3 nM.

Another assay can be described thus: Antagonist activity at mouse CCR2 assessed as inhibition of MCP1-induced chemotaxis after 30 mins.
`Cc1ccc([C@]2(O)CC[C@H](N3CC[C@@H](NC(=O)CNC(=O)c4cccc(C(F)(F)F)c4)C3)CC2)cc1`: the IC50 was determined as 156 nM.
